Values quoted from earlier work in patent publication EP3854384A1, “PHARMACEUTICAL FORMULATION COMPRISING ABIRATERONE ACETATE” (Adamed Pharma S.A., priority 2020, dated 2021).

Settings: low water solubility and low intestinal permeability

Biopharmaceutical Classification System (BCS) class: class IV
Structure (SMILES): CC(=O)O[C@H]1CC[C@@]2(C)C(=CC[C@@H]3[C@@H]2CC[C@]2(C)C(c4cccnc4)=CC[C@@H]32)C1 [Abiraterone acetate, (3β)-17-(3-pyridinyl)androsta-5,16-dien-3-yl acetate]
